# Results taken from ChEMBL document CHEMBL1128410 (J Med Chem, 1995).
# Molecular target: Carbonic anhydrase 2 (Homo sapiens, UniProt P00918)
# Description: Compound was tested for the binding affinity towards Carbonic anhydrase II by competitive fluorescence assay with dansylamide
row,SMILES,Kd [nM]
1,NCCCCC(N)C(=O)[C@@H](N)C(=O)NCCOCCOCCNC(=O)c1ccc(S(N)(=O)=O)cc1 (stereo not given in full),50
2,CC(C)CC(N)C(=O)[C@@H](N)C(=O)NCCOCCOCCNC(=O)c1ccc(S(N)(=O)=O)cc1 (stereo not given in full),16
3,NCC(=O)[C@@H](N)C(=O)NCCOCCOCCNC(=O)c1ccc(S(N)(=O)=O)cc1,19

# Continued, values first:
row,Kd [nM],SMILES
1,41,NC(CO)C(=O)[C@@H](N)C(=O)NCCOCCOCCNC(=O)c1ccc(S(N)(=O)=O)cc1 (stereo not given in full)
2,100,NC(CCC(=O)O)C(=O)[C@@H](N)C(=O)NCCOCCOCCNC(=O)c1ccc(S(N)(=O)=O)cc1 (stereo not given in full)
